Test results from patent US7728028B2, “Substituted imidazoline compounds” (Gruenenthal GmbH, priority 2005, dated 2010).

These compounds were tested against T1, human μ-opiate receptor (Homo sapiens, UniProt P35372) (assay: Affinity for the human μ-opiate receptor ([3H]-naloxone displacement, SPA)). Details: Table 1, aldehydes; test substance 1 μmole/l; inhibition of specific [3H]-naloxone binding; CHO-K1 membranes; read-out: μ-Opioid receptor, % inhibition [1 μM].
T1 construct: purchased PerkinElmer Life Sciences, Zaventem, Belgium RB-HOM; host or cells: CHO-K1 cells (recombinant expression; membrane preparation)
Protocol: Investigations on the Efficacy of the Compounds According to the Invention Method for Determining the Affinity for the Human μ-Opiate Receptor
The receptor affinity for the human μ-opiate receptor is determined in a homogeneous batch in microtiter plates. For this purpose dilution series of the substances to be tested are incubated with a receptor membrane preparation (15-40 μg protein/250 μl incubation batch) of CHO-K1 cells, which express the human μ-opiate receptor (RB-HOM receptor membrane preparation from PerkinElmer Life Sciences, Zaventem, Belgium), in the presence of 1 nmole/l of the radioactive ligand [^3H]-naloxone (NET719, PerkinElmer Life Sciences company, Zaventem, Belgium) and 1 mg WGA-SPA beads (wheat germ agglutinin SPA beads from Amersham/Pharmacia, Freiburg, Germany) in a total volume of 250 μl for 90 minutes at room temperature. 50 mmole/l of Tris-HCl supplemented with 0.06% bovine serum albumin is used as incubation buffer. In order to determine the non-specific binding, 100 μmole/l of naloxone is additionally added. After the end of the 90 minutes' incubation time the microtiter plates are centrifuged for 20 minutes at 1000 g and the radioactivity is measured in a beta counter (Microbeta-Trilux, PerkinElmer Wallac, Freiburg, Germany). The percentage displacement of the radioactive ligand from its binding to the human μ-opiate receptor at a concentration of the test substances of 1 μmole/l is determined and is given as percentage inhibition of the specific binding.

T1 sequence (P35372 whole entry): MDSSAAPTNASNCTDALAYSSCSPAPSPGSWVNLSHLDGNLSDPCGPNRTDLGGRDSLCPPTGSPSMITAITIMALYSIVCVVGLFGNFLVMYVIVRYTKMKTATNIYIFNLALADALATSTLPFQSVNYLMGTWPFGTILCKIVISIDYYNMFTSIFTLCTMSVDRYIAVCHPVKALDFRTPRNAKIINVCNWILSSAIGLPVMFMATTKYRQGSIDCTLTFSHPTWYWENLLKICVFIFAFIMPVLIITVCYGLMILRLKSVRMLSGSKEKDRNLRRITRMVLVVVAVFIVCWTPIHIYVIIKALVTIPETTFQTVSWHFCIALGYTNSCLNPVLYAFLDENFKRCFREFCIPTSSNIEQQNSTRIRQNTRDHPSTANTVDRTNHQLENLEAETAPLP

Structure (SMILES) | inhibition at 1 µM [%]
CN(C)C(c1cccc(F)c1)C1CCC(CC=O)CC1 (stereo not shown) [Example 10b, {4-[dimethylamino-(3-fluorophenyl)-methyl]-cyclohexyl}-acetaldehyde] | 67

Same assay, conditions: Table 2, Examples 11-161; test substance 1 μmole/l; inhibition of specific [3H]-naloxone binding; CHO-K1 membranes; read-out: μ-Opioid receptor, % inhibition [1 μM]

Structure (SMILES) | inhibition at 1 µM [%]
CCCN1C=NC(CSCc2ccccc2)(C(=O)OC)C1C1CCC(C(c2ccc(Cl)cc2)N(C)C)CC1 (stereo not shown) [Example 60, 4-benzylsulfanylmethyl-5-{4-[(4-chlorophenyl)-dimethylaminomethyl]-cyclohexyl}-1-propyl-4,5-dihydro-1H-imidazole-4-carboxylic acid methyl ester] | 95
COC(=O)C1(CCSC)N=CN(C2CCCCC2)C1CC1CCC(C(CCc2ccccc2)N(C)C)CC1 (stereo not shown) [Example 109, 1-cyclohexyl-5-[4-(1-dimethylamino-3-phenylpropyl)-cyclohexylmethyl]-4-(2-methylsulfanyl-ethyl)-4,5-dihydro-1H-imidazole-4-carboxylic acid methyl ester] | 87
CCCCN1C=NC(CCCC)(C(=O)OC)C1CC1CCC(C(c2ccc(Cl)cc2)N(C)C)CC1 (stereo not shown) [Example 36, 1,4-dibutyl-5-{4-[(4-chlorophenyl)-dimethylaminomethyl]-cyclohexylmethyl}-4,5-dihydro-1H-imidazole-4-carboxylic acid methyl ester] | 97
CCCCC1(C(=O)OC)N=CN(C2CCCCC2)C1C1CCC(C(c2ccc(Cl)cc2)N(C)C)CC1 (stereo not shown) [Example 16, 4-butyl-5-{4-[(4-chlorophenyl)-dimethylaminomethyl]-cyclohexyl}-1-cyclohexyl-4,5-dihydro-1H-imidazole-4-carboxylic acid methyl ester] | 92
CCCCN1C=NC(CSC)(C(=O)OC)C1CC1CCC(C(c2cccc(F)c2)N(C)C)CC1 (stereo not shown) [Example 74, 1-butyl-5-{4-[dimethylamino-(3-fluorophenyl)-methyl]-cyclohexylmethyl}-4-methylsulfanylmethyl-4,5-dihydro-1H-imidazole-4-carboxylic acid methyl ester] | 95
CCCN1C=NC(CC(C)C)(C(=O)OC)C1CC1CCC(C(c2ccc(Cl)cc2)N(C)C)CC1 (stereo not shown) [Example 26, 5-{4-[(4-chlorophenyl)-dimethylaminomethyl]-cyclohexylmethyl}-4-isobutyl-1-propyl-4,5-dihydro-1H-imidazole-4-carboxylic acid methyl ester] | 96
COC(=O)C1(C)N=CN(Cc2ccccc2)C1CC1CCC(C(CCc2ccccc2)N(C)C)CC1 (stereo not shown) [Example 146, 1-benzyl-5-[4-(1-dimethylamino-3-phenylpropyl)-cyclohexylmethyl]-4-methyl-4,5-dihydro-1H-imidazole-4-carboxylic acid methyl ester] | 79
CCCCN1C=NC(CCSC)(C(=O)OC)C1CC1CCC(C(CCc2ccccc2)N(C)C)CC1 (stereo not shown) [Example 128, 1-butyl-5-[4-(1-dimethylamino-3-phenylpropyl)-cyclohexylmethyl]-4-(2-methylsulfanylethyl)-4,5-dihydro-1H-imidazole-4-carboxylic acid methyl ester] | 83
COC(=O)C1(CSCc2ccccc2)N=CN(C2CCCCC2)C1CC1CCC(C(CCc2ccccc2)N(C)C)CC1 (stereo not shown) [Example 156, 4-benzylsulfanylmethyl-1-cyclohexyl-5-[4-(1-dimethylamino-3-phenylpropyl)-cyclohexylmethyl]-4,5-dihydro-1H-imidazole-4-carboxylic acid methyl ester] | 92
CCCN1C=NC(Cc2ccc(Cl)cc2)(C(=O)OC)C1CC1CCC(C(c2ccc(Cl)cc2)N(C)C)CC1 (stereo not shown) [Example 27, 4-(4-chlorobenzyl)-5-{4-[(4-chlorophenyl)-dimethylaminomethyl]-cyclohexylmethyl}-1-propyl-4,5-dihydro-1H-imidazole-4-carboxylic acid methyl ester] | 96
COC(=O)C1(CC(C)C)N=CN(C2CCCCC2)C1CC1CCC(C(c2ccc(Cl)cc2)N(C)C)CC1 (stereo not shown) [Example 17, 5-{4-[(4-chlorophenyl)-dimethylaminomethyl]-cyclohexylmethyl}-1-cyclohexyl-4-isobutyl-4,5-dihydro-1H-imidazole-4-carboxylic acid methyl ester] | 96
CCC(C)C1(C(=O)OC)N=CN(C2CCCCC2)C1CC1CCC(C(c2ccc(Cl)cc2)N(C)C)CC1 (stereo not shown) [Example 54, Methyl-4-sec-butyl-5-((4-((4-chlorophenyl)(dimethylamino)methyl)cyclohexyl)methyl)-1-cyclohexyl-4,5-dihydro-1H-imidazole-4-carboxylate] | 100
COC(=O)C1(CC(C)C)N=CN(Cc2ccccc2)C1CC1CCC(C(c2ccc(Cl)cc2)N(C)C)CC1 (stereo not shown) [Example 50, 1-benzyl-5-{4-[(4-chlorophenyl)-dimethylaminomethyl]-cyclohexylmethyl}-4-isobutyl-4,5-dihydro-1H-imidazole-4-carboxylic acid methyl ester] | 94
COC(=O)C1(CC(C)C)N=CN(C2CCCCC2)C1C1CCC(C(c2ccc(Cl)cc2)N(C)C)CC1 (stereo not shown) [Example 14, 5-{4-[(4-chlorophenyl)-dimethylaminomethyl]-cyclohexyl}-1-cyclohexyl-4-isobutyl-4,5-dihydro-1H-imidazole-4-carboxylic acid methyl ester] | 92
CCCCC1(C(=O)OC)N=CN(CCc2ccccc2)C1C1CCC(C(c2ccc(Cl)cc2)N(C)C)CC1 (stereo not shown) [Example 42, 4-butyl-5-{4-[(4-chlorophenyl)-dimethylaminomethyl]-cyclohexyl}-1-phenethyl-4,5-dihydro-1H-imidazole-4-carboxylic acid methyl ester] | 94
CCC(C)C1(C(=O)OC)N=CN(C2CCCCC2)C1CC1CCC(C(c2cccc(F)c2)N(C)C)CC1 (stereo not shown) [Example 148, 4-sec-butyl-1-cyclohexyl-5-{4-[dimethylamino-(3-fluorophenyl)-methyl]-cyclohexylmethyl}-4,5-dihydro-1H-imidazole-4-carboxylic acid methyl ester] | 95
COC(=O)C1(CCSC)N=CN(C2CCCCC2)C1CC1CCC(C(c2cccc(F)c2)N(C)C)CC1 (stereo not shown) [Example 103, 1-cyclohexyl-5-{4-[dimethylamino-(3-fluorophenyl)-methyl]-cyclohexylmethyl}-4-(2-methylsulfanyl-ethyl)-4,5-dihydro-1H-imidazole-4-carboxylic acid methyl ester] | 99
CCCCN1C=NC(Cc2ccc(Cl)cc2)(C(=O)OC)C1C1CCC(C(c2cccc(F)c2)N(C)C)CC1 (stereo not shown) [Example 30, 1-butyl-4-(4-chlorobenzyl)-5-{4-[dimethylamino-(3-fluorophenyl)-methyl]-cyclohexyl}-4,5-dihydro-1H-imidazole-4-carboxylic acid methyl ester] | 89
CCCCN1C=NC(CSCc2ccccc2)(C(=O)OC)C1CC1CCC(C(c2ccc(Cl)cc2)N(C)C)CC1 (stereo not shown) [Example 90, 4-benzylsulfanylmethyl-1-butyl-5-{4-[(4-chlorophenyl)-dimethylaminomethyl]-cyclohexylmethyl}-4,5-dihydro-1H-imidazole-4-carboxylic acid methyl ester] | 99
CCCCN1C=NC(Cc2ccc(Cl)cc2)(C(=O)OC)C1C1CCC(C(c2ccc(Cl)cc2)N(C)C)CC1 (stereo not shown) [Example 32, 1-butyl-4-(4-chlorobenzyl)-5-{4-[(4-chlorophenyl)-dimethylaminomethyl]-cyclohexyl}-4,5-dihydro-1H-imidazole-4-carboxylic acid methyl ester] | 74
CCCCN1C=NC(CCC(=O)OC)(C(=O)OC)C1C1CCC(C(c2ccc(Cl)cc2)N(C)C)CC1 (stereo not shown) [Example 68, 1-butyl-5-{4-[(4-chlorophenyl)-dimethylaminomethyl]-cyclohexyl}-4-(2-methoxycarbonylethyl)-4,5-dihydro-1H-imidazole-4-carboxylic acid methyl ester] | 90
CCCCN1C=NC(CCC(=O)OC)(C(=O)OC)C1CC1CCC(C(c2cccc(F)c2)N(C)C)CC1 (stereo not shown) [Example 72, 1-butyl-5-{4-[dimethylamino-(3-fluorophenyl)-methyl]-cyclohexylmethyl}-4-(2-methoxycarbonylethyl)-4,5-dihydro-1H-imidazole-4-carboxylic acid methyl ester] | 95
COC(=O)C1(CSC)N=CN(Cc2ccccc2)C1CC1CCC(C(c2ccc(Cl)cc2)N(C)C)CC1 (stereo not shown) [Example 100, 1-benzyl-5-{4-[(4-chlorophenyl)-dimethylaminomethyl]-cyclohexylmethyl}-4-methylsulfanylmethyl-4,5-dihydro-1H-imidazole-4-carboxylic acid methyl ester] | 97
COC(=O)CCC1(C(=O)OC)N=CN(C2CCCCC2)C1C1CCC(C(c2cccc(F)c2)N(C)C)CC1 (stereo not shown) [Example 115, 1-cyclohexyl-5-{4-[dimethylamino-(3-fluorophenyl)-methyl]-cyclohexyl}-4-(2-methoxycarbonylethyl)-4,5-dihydro-1H-imidazole-4-carboxylic acid methyl ester] | 98
